From ChEMBL document CHEMBL6103595, “Synthesis and evaluation of piceatannol derivatives as novel arginase inhibitors with radical scavenging activity and their potential for collagen reduction in dermal fibroblasts” (Eur J Med Chem, 2025) come the findings set out here.

The source made the active and inactive calls. No cut-off for these calls is given here.

By IC50 is commonly meant the concentration that gives 50% inhibition. As usually defined, the EC50 is the concentration that produces a half-maximal response.

For data set [1], the target named is T1, Arginase-1 (Bos taurus, UniProt Q2KJ64).
T1 sequence (Q2KJ64 whole entry): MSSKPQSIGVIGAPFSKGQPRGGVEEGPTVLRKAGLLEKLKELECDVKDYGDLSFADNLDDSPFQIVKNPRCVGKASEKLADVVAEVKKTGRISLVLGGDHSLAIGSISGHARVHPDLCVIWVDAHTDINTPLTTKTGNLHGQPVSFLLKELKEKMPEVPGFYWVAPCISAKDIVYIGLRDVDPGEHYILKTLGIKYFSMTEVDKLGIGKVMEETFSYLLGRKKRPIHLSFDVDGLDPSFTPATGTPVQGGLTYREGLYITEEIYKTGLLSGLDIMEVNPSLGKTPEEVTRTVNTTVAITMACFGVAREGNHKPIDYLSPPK
The experiment in a line: Inhibition of bovine Arg-1 using L-ARG as substrate incubated for 60 mins by OPA colorimetric analysis.

The test system of data set [2] is Red-COLA1. Briefly: Antifibrotic activity against TGF-beta induced human Red-COLA1 cells assessed as reduction in procollagen type-1 synthesis at 10 uM incubated for 48 hrs by ELISA (reference value: 130.6 ng/ml). Type of data set: functional, cell-based. Background: ELISA stands for enzyme-linked immunosorbent assay.
Data set [3] in a line: Cytotoxicity against human Red-COLA1 cells assessed as cell viability at 10 uM incubated for 24 hrs by MTT assay relative to control. Type of data set: functional. Particulars: read-out: Activity. (Tetrazolium dyes change colour on reduction, which living cells bring about.)
Data set [4] is described as follows: Antifibrotic activity against TGF-beta induced human Red-COLA1 cells assessed as reduction in collagen deposition rate at 10 uM measured after 7 days by sirius red staining based microplate reader analysis (reference value: 130.6%). Type of data set: functional. More on the design: scale not given: the % may be the effect or the level left. The conditions noted are these: time 7 day.

Data set [5] deals with T2, Arginase-1 (Homo sapiens, UniProt P05089).
T2 sequence (P05089 whole entry): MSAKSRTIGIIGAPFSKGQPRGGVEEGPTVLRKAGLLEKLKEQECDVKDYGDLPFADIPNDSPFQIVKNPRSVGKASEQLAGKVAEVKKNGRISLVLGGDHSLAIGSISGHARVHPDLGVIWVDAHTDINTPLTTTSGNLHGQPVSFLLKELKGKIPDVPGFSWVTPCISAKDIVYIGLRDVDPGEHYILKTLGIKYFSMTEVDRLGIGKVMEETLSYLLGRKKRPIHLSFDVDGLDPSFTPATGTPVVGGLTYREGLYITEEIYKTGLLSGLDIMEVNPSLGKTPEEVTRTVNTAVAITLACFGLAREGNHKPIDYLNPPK
The experiment in a line: Inhibition of recombinant human Arg-1 using L-ARG as substrate incubated for 60 mins by OPA colorimetric analysis.

Data set [6] has as its target T3, Arginase-1 (Bos taurus) (UniProt Q2KJ64).
T3 sequence (whole entry): T1 sequence (Q2KJ64 whole entry)
Briefly: Potency index, ratio of piceatannol IC50 to test compound IC50 for inhibition of bovine Arg-1 using L-ARG as substrate.

A short description of data set [7]: Antioxidant activity assessed as DPPH radical scavenging activity incubated for 30 mins under dark condition by absorbance based analysis. Type of data set: functional. Background: Loss of DPPH colour is used to gauge radical scavenging.
Data set [8] is described as follows: Antioxidant activity assessed as ABTS radical scavenging activity incubated for 12 hrs under dark condition by absorbance based plate reader analysis. Type of data set: functional.
The nature of data set [9]: Antifibrotic activity against TGF-beta induced human Red-COLA1 cells assessed as reduction in collagen deposition rate at 5 uM measured after 7 days by sirius red staining based microplate reader analysis (reference value: 130.6%). The conditions noted are these: time 7 day. Type of data set: functional. More on the design: scale not given: the % may be the effect or the level left.

Data set [10] in a line: Cytotoxicity against human Red-COLA1 cells assessed as cell viability at 5 uM incubated for 24 hrs by MTT assay relative to control. Type of data set: functional. Particulars: read-out: Activity.
Data set [11] can be described thus: Stability of the compound in aqueous solution at 20 mM measured after 4 hrs. Type of data set: physicochemical. Particulars: buffer, 20000 µM.
The subject of data set [12] is Red-COLA1. The experiment in a line: (§1) Antifibrotic activity against TGF-beta induced human Red-COLA1 cells assessed as reduction in procollagen type-1 synthesis at 5 uM incubated for 48 hrs by ELISA (reference value: 130.6 ng/ml). Type of data set: functional.
Data set [13] can be described thus: Stability of the compound in aqueous solution at 20 mM measured at <= 2 hrs relative to control. The conditions noted are these: read-out: Stability. Type of data set: physicochemical.
Data set [14] in a line: as §1. Type of data set: functional.

Turning to `O=C(Nc1ccccc1O)c1ccc(O)c(O)c1`, the concentration for half-maximal inhibition (IC50) in data set [1] turned out to be 3100 µM.

Molecule `Oc1ccc(/C=C/c2ccccc2)cc1O` [(E)-3,4-STILBENDIOL] gave an IC50 in data set [1] of 97 µM.

In data set [1], `Oc1ccc(NC(=S)c2ccc(O)c(O)c2)cc1` came in with a half-maximal inhibitory concentration (IC50) of 95 µM.

`Oc1cc(O)cc(NC(=S)c2ccc(O)c(O)c2)c1` showed an IC50 in data set [1] of 66 µM.

Consider `Oc1ccc(O)c(/C=C/c2ccc(O)c(O)c2)c1`, for which half-maximal inhibition in [1] (IC50) was put at 59 µM.

Consider `O=C(Nc1cc(O)cc(O)c1)c1ccc(O)c(O)c1`, for which, in [1], the IC50 is 202 µM.

Turning to `Nc1cccc(C(=S)Nc2ccc(O)c(O)c2)c1`, the IC50 in data set [1] worked out at 161 µM.

As for `Nc1cccc(NC(=O)c2ccc(O)c(O)c2)c1`, the midpoint of inhibition in data set [1], the IC50, lay at 440 µM.

Regarding `O=S(=O)(Nc1ccc(O)c(O)c1)c1cccc(O)c1`, the concentration for half-maximal inhibition (IC50) in data set [1] stood at 325 µM.

`O=C(c1ccc(O)c(O)c1)N(CCCCO)c1ccc(O)c(O)c1` showed a concentration for half-maximal inhibition (IC50) in [1] of 88 µM.

Turning to `CN(C(=O)c1ccc(O)c(O)c1)c1ccc(O)c(O)c1`, in data set [1], it took 222 µM to reach half-maximal inhibition (IC50).

In the case of `N[C@@H](CSCCB(O)O)C(=O)O`, in [2], the result was inactive. Besides, the viability at 10 µM in data set [3] came out at 96.7%. Moreover, in [4], the Activity was found to be 130.6%. The IC50 in data set [5] was 9 µM; in data set [1] it was 17 µM.

As to `Oc1ccc(/C=C/c2ccc(O)c(O)c2)cc1O`, half-maximal inhibition in data set [1] (IC50) required 69 µM.

As to `O=S(=O)(Nc1ccc(O)c(O)c1)c1ccc(O)c(O)c1`, in [6], the Ratio IC50 is 6. The molecule also had an IC50 in data set [1] of 130 µM.

As to `Oc1ccc(C(=S)Nc2ccccc2)cc1O`, 124 µM corresponded to half-maximal inhibition in data set [1] (IC50).

For `O/N=C(/Nc1ccc(O)c(O)c1)c1ccc(O)c(O)c1`, the concentration giving a half-maximal response (EC50) in data set [7] is 16 µM; in data set [8], 12 µM. Further, in data set [1], the IC50 worked out at 115 µM.

`O=S(=O)(Nc1ccc(O)c(O)c1)c1cc(O)ccc1O`: the IC50 in data set [1] was > 500 µM.

In the case of `Oc1cc(O)cc(C(=S)Nc2ccc(O)c(O)c2)c1`, in data set [9], the Activity is 133.1%. In addition, the viability at 5 µM in data set [10] was 100%. In addition, the EC50 in data set [7] was 17 µM; in [8], 12 µM. Moreover, in data set [11], the Stability result is listed as “Stable”. The result in data set [12] was inactive. The IC50 in data set [5] turned out to be 32 µM; in data set [1] it was 20 µM.

For `O=C(Nc1ccc(O)c(O)c1)c1cccc(O)c1O`, the IC50 in data set [1] is 69 µM.

`Nc1ccc(NC(=O)c2ccc(O)c(O)c2)cc1`: half-maximal inhibition in data set [1] (IC50) required 170 µM.

As for `O=C(c1ccc(O)c(O)c1)N(CCO)c1ccc(O)c(O)c1`, the IC50 in [1] is 228 µM.

`O=c1c(O)c(-c2ccc(O)c(O)c2)oc2cc(O)cc(O)c12` [QUERCETIN]: the EC50 worked out at 16 µM in data set [7] and 10 µM in [8].

With `O=C(Nc1ccccc1)c1ccc(O)c(O)c1`, the IC50 in data set [1] was determined as 1000 µM.

On to `Oc1ccc(C(=S)Nc2ccc(O)c(O)c2)cc1`, for which the concentration for a half-maximal effect (EC50) came to 14 µM in data set [7] and 10 µM in data set [8]. Besides, the IC50 was 38 µM in data set [5] and 13 µM in data set [1].

Molecule `Nc1cccc(NC(=S)c2ccc(O)c(O)c2)c1` showed an IC50 in data set [1] of 116 µM.

The molecule `Oc1cccc(NC(=S)c2ccc(O)c(O)c2)c1` returned an IC50 in [1] of 41 µM.

As to `Oc1cc(O)cc(/C=C/c2ccc(O)c(O)c2)c1` [PICEATANNOL], in data set [2], the result was inactive. For the same molecule, the values for the EC50 in [7] and in data set [8] were 37 µM and 13 µM, respectively. In addition, the viability at 10 µM in data set [3] turned out to be 100%. Also, in [4], the Activity was 113.5%. In addition, the IC50 came out at 28 µM in [5] and 20 µM in [1]. Moreover, in [13], the remaining at 2 h, 20000 µM is 70%.

For the molecule `Cc1c(C)c2c(c(C)c1O)CCC(C)(C(=O)O)O2` (stereo not given) [TROLOX], the EC50 in data set [7] worked out at 29 µM; in [8], 24 µM.

In turn, `O=C(Nc1ccc(O)cc1)c1ccc(O)c(O)c1` came in with an IC50 in data set [1] of 2600 µM.

The molecule `Oc1ccc(NC(=S)c2ccccc2)cc1O` registered an IC50 in data set [1] of 63 µM.

Turning to `O=C(Nc1ccc(O)c(O)c1)c1ccc(O)c(O)c1`, the EC50 in [7] and in data set [8] was 12 µM in each case. Besides, the midpoint of inhibition in [1], the IC50, lay at 20 µM.

`Oc1ccc(/N=C(/Nc2ccc(O)c(O)c2)c2ccc(O)c(O)c2)cc1O` had an IC50 in data set [1] of 171 µM.

`O=C(c1ccc(O)c(O)c1)N(CCCCCO)c1ccc(O)c(O)c1` came in with a concentration for half-maximal inhibition (IC50) in data set [1] of 137 µM.

In the case of `Oc1cccc(C(=S)Nc2ccc(O)c(O)c2)c1`, the EC50 in [7] was found to be 10 µM; in data set [8], 12 µM. For the same molecule, the values for the half-inhibitory concentration (IC50) in [5] and in data set [1] were 28 µM and 16 µM, respectively.

Molecule `O=C(Nc1ccc(O)c(O)c1)c1cc(O)c(O)c(O)c1` showed an IC50 in data set [1] of 65 µM.

The molecule `O=C(Nc1cccc(O)c1)c1ccc(O)c(O)c1` yielded an IC50 in data set [1] of 770 µM.

As to `O=C(Nc1ccc(O)c(O)c1)c1cc(O)cc(O)c1`, the figures for the EC50 in data set [7] and in data set [8] were 23 µM and 5 µM, respectively. This molecule also gave a half-maximal inhibitory concentration (IC50) in data set [1] of 34 µM.

With `O=C(c1ccc(O)c(O)c1)N(CCCO)c1ccc(O)c(O)c1`, half-maximal inhibition in data set [1] (IC50) required 148 µM.

With `Oc1ccc(NC(=S)c2ccc(O)c(O)c2)cc1O`, the figures for the Activity in data set [9] and in data set [14] were 100.8% and 87.5 ng/mL, respectively. Besides, in data set [10], the viability at 5 µM was 92.8%. Besides, the Ratio IC50 in [6] was found to be 2. Moreover, the values for the half-maximal effective concentration (EC50) in data set [7] and in [8] were 9 µM and 12 µM, respectively. In addition, the IC50 was 55 µM in data set [5] and 9 µM in data set [1]. The remaining at 2 h, 20000 µM in data set [13] turned out to be 70%.
